Assay results: US20140256687A1, “Agricultural and Horticultural Insecticide Composition and Method for Using the Same” (priority 2011, published 2014)

How the values were obtained:
Chilo suppressalis = experiment: Control effect on Chilo suppressalis (potted rice spray test); type: in vivo; conditions: spray 400 L/ha, g a.i./ha: flubendiamide 30, dichlorvos 393, profenofos 500; for Percentage of control (%): control effect by formula 2; for Percentage of control (%) / Percentage of damaged stems (%): 29 days after treatment; for Number of stems at 29 days after treatment, Damaged stems / Number of stems at 29 days after treatment, Normal stems: rice (Kinmaze) in pots, 60 larvae per pot
Procedure: Rice plants (variety: Kinmaze) were planted in 2-L pots and grown to a height of about 80 cm (about 82 days after transplantation, 18 to 25 sheaths). The depth of paddy water in each pot was adjusted to 4 cm and then spray treatment to the rice plants was conducted with an agrochemical solution diluted to a predetermined concentration in an amount equivalent to 400 L/ha. After the spray-treated plants were air-dried, each pot was covered with a vinyl chloride cylindrical cover 30 cm in height. At 1 day before the treatment and at 5 and 12 days after the treatment, 20 larvae of the test insect pest Chilo suppressalis were released into each of the covered pots (60 larvae in total per pot). At 29 days after the treatment, in each pot, the number of damaged stems of the rice plants was counted, the percentage of damaged stems was calculated, and from this percentage, the control effect was calculated according to formula 2. In addition, the expected value was calculated according to Colby's equation in the same manner as in Test Example 1.
Control effect (%)=100−(the percentage of damaged stems in a treatment plot/the percentage of damaged stems in a non-treatment plot)×100 <Formula 2>

Plutella xylostella = experiment: Control effect on Plutella xylostella (cabbage, greenhouse spray test); type: in vivo; conditions: spray 800 L/ha, g a.i./ha: flubendiamide 60, dichlorvos 400, profenofos 320; for Number of surviving larvae 2 days after treatment / Number of surviving larvae 6 days after treatment: 3rd-instar larvae on Brassica oleracea var. capitata, three plants per plot; for Control effect (%) 2 days after treatment / Control effect (%) 6 days after treatment: formula 1

Row | SMILES | Percentage of control (%) (Chilo suppressalis) | Number of stems at 29 days after treatment, Damaged stems (Chilo suppressalis) | Number of stems at 29 days after treatment, Normal stems (Chilo suppressalis) | Percentage of damaged stems (%) (Chilo suppressalis) | Number of surviving larvae 2 days after treatment (Plutella xylostella) | Number of surviving larvae 6 days after treatment (Plutella xylostella) | Control effect (%) 2 days after treatment (Plutella xylostella) [%] | Control effect (%) 6 days after treatment (Plutella xylostella) [%]
1 | CCCSP(=O)(OCC)Oc1ccc(Br)cc1Cl (stereo not drawn) [Profenofos, O-4-bromo-2-chlorophenyl O-ethyl S-propyl phosphorothioate] | 27.7 | 35 | 18 | 66.0 | 121 | 44 | 48 | 80
2 | COP(=O)(OC)OC=C(Cl)Cl [Dichlorvos, 2,2-dichlorovinyl dimethyl phosphate] | 7.5 | 38 | 7 | 84.4 | 188 | 212 | 16 | 0
3 | Cc1cc(C(F)(C(F)(F)F)C(F)(F)F)ccc1NC(=O)c1cccc(I)c1C(=O)NC(C)(C)CS(C)(=O)=O [Flubendiamide, 3-iodo-W-(2-mesyl-1,1-dimethylethyl)-N-{4-[1,2,2,2-tetrafluoro-1-(trifluoromethyl)ethyl]-o-tolyl}phthalamide] | 54.0 | 21 | 29 | 42.0 | 307 | 56 | 39 | 88
